Results from ChEMBL document CHEMBL4304811, “Development of a Water-Soluble Indolylmaleimide Derivative IM-93 Showing Dual Inhibition of Ferroptosis and NETosis” (ACS Med Chem Lett, 2019).

Columns and labels:
[1] = target: Casein kinase I isoform gamma-1 (Homo sapiens) (UniProt Q9HCP0); experiment: Binding affinity to wild-type human partial length CSNK1G1 (T15 to S353 residues) expressed in bacterial expression system assessed as residual binding level at 10 uM by Kinomescan method relative to control
[2] = target: Atypical kinase COQ8A, mitochondrial (Homo sapiens) (UniProt Q8NI60); experiment: Binding affinity to wild-type human full length ADCK3 (M280 to Q647 residues) expressed in bacterial expression system assessed as residual binding level at 10 uM by Kinomescan method relative to control
[3] = target: Cyclin-dependent kinase 13 (Homo sapiens) (UniProt Q14004); experiment: Binding affinity to wild-type human partial length CDC2L5 (H675 to S1054 residues) expressed in mammalian expression system assessed as residual binding level at 10 uM by Kinomescan method relative to control
[4] = target: Calcium/calmodulin-dependent protein kinase type II subunit alpha (Homo sapiens) (UniProt Q9UQM7); experiment: Binding affinity to wild-type human partial length CAMK2A (M1 to K328 residues) expressed in bacterial expression system assessed as residual binding level at 10 uM by Kinomescan method relative to control
[5] = target: Muscle, skeletal receptor tyrosine-protein kinase (Homo sapiens) (UniProt O15146); experiment: Binding affinity to wild-type human partial length MUSK (M553 to V869 residues) expressed in bacterial expression system assessed as residual binding level at 10 uM by Kinomescan method relative to control
[6] = target: Hepatocyte growth factor receptor (Homo sapiens) (UniProt P08581); experiment: Binding affinity to wild-type human partial length MET (D1010 to S1367 residues) expressed in bacterial expression system assessed as residual binding level at 10 uM by Kinomescan method relative to control
[7] = target: BMP-2-inducible protein kinase (Homo sapiens) (UniProt Q9NSY1); experiment: Binding affinity to wild-type human partial length BIKE (S34 to N329 residues) expressed in bacterial expression system assessed as residual binding level at 10 uM by Kinomescan method relative to control
[8] = system: Epidermal growth factor receptor (Homo sapiens), P00533 [UNDEFINED MUTATION]; experiment: Binding affinity to human partial length EGFR S752-I759del mutant expressed in bacterial expression system assessed as residual binding level at 10 uM by Kinomescan method relative to control
[9] = target: Bone morphogenetic protein receptor type-1A (Homo sapiens) (UniProt P36894); experiment: Binding affinity to wild-type human partial length BMPR1A (Q214 to I532 residues) expressed in bacterial expression system assessed as residual binding level at 10 uM by Kinomescan method relative to control
[10] = target: Serine/threonine-protein kinase PLK3 (Homo sapiens) (UniProt Q9H4B4); experiment: Binding affinity to wild-type human partial length PLK3 (A42 to L334 residues) expressed in mammalian expression system assessed as residual binding level at 10 uM by Kinomescan method relative to control
[11] = target: Transient receptor potential cation channel subfamily M member 6 (Homo sapiens) (UniProt Q9BX84); experiment: Binding affinity to wild-type human partial length TRPM6 (Q1723 to I1998 residues) expressed in mammalian expression system assessed as residual binding level at 10 uM by Kinomescan method relative to control
[12] = target: Tyrosine-protein kinase JAK3 (Homo sapiens) (UniProt P52333); experiment: Binding affinity to wild-type human partial length JAK3 JH1 catalytic domain (I781 to S1124 residues) expressed in mammalian expression system assessed as residual binding level at 10 uM by Kinomescan method relative to control
[13] = target: Tyrosine-protein kinase Lyn (Homo sapiens) (UniProt P07948); experiment: Binding affinity to wild-type human partial length LYN (C219 to Q511 residues) expressed in bacterial expression system assessed as residual binding level at 10 uM by Kinomescan method relative to control
[14] = target: STE20/SPS1-related proline-alanine-rich protein kinase (Homo sapiens) (UniProt Q9UEW8); experiment: Binding affinity to wild-type human partial length STK39 (P43 to I357 residues) expressed in mammalian expression system assessed as residual binding level at 10 uM by Kinomescan method relative to control
[15] = system: Epidermal growth factor receptor (Homo sapiens), P00533 [L858R,T790M]; experiment: Binding affinity to human partial length EGFR L858R/T790M double mutant (R669 to V1011 residues) expressed in mammalian expression system assessed as residual binding level at 10 uM by Kinomescan method relative to control
[16] = target: Mitogen-activated protein kinase 12 (Homo sapiens) (UniProt P53778); experiment: Binding affinity to wild-type human full length p38-gamma (M1 to L367 residues) expressed in mammalian expression system assessed as residual binding level at 10 uM by Kinomescan method relative to control
[17] = target: Serine/threonine-protein kinase STK11 (Homo sapiens) (UniProt Q15831); experiment: Binding affinity to wild-type human full length LKB1 (M1 to Q433 residues) expressed in bacterial expression system assessed as residual binding level at 10 uM by Kinomescan method relative to control
[18] = target: Phosphatidylinositol 4,5-bisphosphate 3-kinase catalytic subunit beta isoform (Homo sapiens) (UniProt P42338); experiment: Binding affinity to wild-type human partial length PIK3CB (P118 to S1070 residues) expressed in mammalian expression system assessed as residual binding level at 10 uM by Kinomescan method relative to control
[19] = target: Calcium/calmodulin-dependent protein kinase type II subunit delta (Homo sapiens) (UniProt Q13557); experiment: Binding affinity to wild-type human partial length CAMK2D (M1 to E329 residues) expressed in bacterial expression system assessed as residual binding level at 10 uM by Kinomescan method relative to control
[20] = target: Microtubule-associated serine/threonine-protein kinase 1 (Homo sapiens) (UniProt Q9Y2H9); experiment: Binding affinity to wild-type human partial length MAST1 (S346 to V730 residues) expressed in mammalian expression system assessed as residual binding level at 10 uM by Kinomescan method relative to control
[21] = system: Mast/stem cell growth factor receptor Kit (Homo sapiens), P10721 [L576P]; experiment: Binding affinity to human partial length KIT L576P mutant (Y545 to D952 residues) expressed in bacterial expression system assessed as residual binding level at 10 uM by Kinomescan method relative to control
[22] = target: MAP/microtubule affinity-regulating kinase 3 (Homo sapiens) (UniProt P27448); experiment: Binding affinity to wild-type human full length MARK3 (M1 to L729 residues) expressed in bacterial expression system assessed as residual binding level at 10 uM by Kinomescan method relative to control
[23] = target: Cyclin-dependent kinase 18 (Homo sapiens) (UniProt Q07002); experiment: Binding affinity to wild-type human full length PCTK3 (M3 to F474 residues) expressed in bacterial expression system assessed as residual binding level at 10 uM by Kinomescan method relative to control
[24] = target: Rho-associated protein kinase 1 (Homo sapiens) (UniProt Q13464); experiment: Binding affinity to wild-type human partial length ROCK1 (M1 to R415 residues) expressed in mammalian expression system assessed as residual binding level at 10 uM by Kinomescan method relative to control

Chain of Casein kinase I isoform gamma-1 (Homo sapiens) (Q9HCP0 whole entry, looked up, the tested form may be a part, canonical isoform): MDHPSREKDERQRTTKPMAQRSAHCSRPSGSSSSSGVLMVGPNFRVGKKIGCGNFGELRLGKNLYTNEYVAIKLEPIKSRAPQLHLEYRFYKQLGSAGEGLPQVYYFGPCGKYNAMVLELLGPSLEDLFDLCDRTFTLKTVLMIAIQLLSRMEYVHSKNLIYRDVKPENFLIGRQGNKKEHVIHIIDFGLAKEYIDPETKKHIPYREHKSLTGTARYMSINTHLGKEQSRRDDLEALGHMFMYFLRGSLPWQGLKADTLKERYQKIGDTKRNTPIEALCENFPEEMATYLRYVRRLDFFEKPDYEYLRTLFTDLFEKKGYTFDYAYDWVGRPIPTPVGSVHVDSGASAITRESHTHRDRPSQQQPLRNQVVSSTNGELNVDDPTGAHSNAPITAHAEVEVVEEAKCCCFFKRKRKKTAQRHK
Chain of Mitogen-activated protein kinase 12 (Homo sapiens) (P53778 whole entry, the tested form may be a part): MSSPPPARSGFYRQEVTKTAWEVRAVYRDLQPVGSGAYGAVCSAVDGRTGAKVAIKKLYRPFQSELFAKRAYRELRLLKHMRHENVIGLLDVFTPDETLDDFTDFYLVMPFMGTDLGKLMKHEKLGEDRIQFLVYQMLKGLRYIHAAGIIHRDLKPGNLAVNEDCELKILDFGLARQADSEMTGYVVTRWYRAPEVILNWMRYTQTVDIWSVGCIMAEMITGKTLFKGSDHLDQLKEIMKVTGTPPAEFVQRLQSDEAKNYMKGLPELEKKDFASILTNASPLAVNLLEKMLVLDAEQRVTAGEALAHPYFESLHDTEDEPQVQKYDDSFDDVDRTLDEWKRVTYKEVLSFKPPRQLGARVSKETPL
Chain of Phosphatidylinositol 4,5-bisphosphate 3-kinase catalytic subunit beta isoform (Homo sapiens) (P42338 whole entry, looked up, the tested form may be a part, canonical isoform): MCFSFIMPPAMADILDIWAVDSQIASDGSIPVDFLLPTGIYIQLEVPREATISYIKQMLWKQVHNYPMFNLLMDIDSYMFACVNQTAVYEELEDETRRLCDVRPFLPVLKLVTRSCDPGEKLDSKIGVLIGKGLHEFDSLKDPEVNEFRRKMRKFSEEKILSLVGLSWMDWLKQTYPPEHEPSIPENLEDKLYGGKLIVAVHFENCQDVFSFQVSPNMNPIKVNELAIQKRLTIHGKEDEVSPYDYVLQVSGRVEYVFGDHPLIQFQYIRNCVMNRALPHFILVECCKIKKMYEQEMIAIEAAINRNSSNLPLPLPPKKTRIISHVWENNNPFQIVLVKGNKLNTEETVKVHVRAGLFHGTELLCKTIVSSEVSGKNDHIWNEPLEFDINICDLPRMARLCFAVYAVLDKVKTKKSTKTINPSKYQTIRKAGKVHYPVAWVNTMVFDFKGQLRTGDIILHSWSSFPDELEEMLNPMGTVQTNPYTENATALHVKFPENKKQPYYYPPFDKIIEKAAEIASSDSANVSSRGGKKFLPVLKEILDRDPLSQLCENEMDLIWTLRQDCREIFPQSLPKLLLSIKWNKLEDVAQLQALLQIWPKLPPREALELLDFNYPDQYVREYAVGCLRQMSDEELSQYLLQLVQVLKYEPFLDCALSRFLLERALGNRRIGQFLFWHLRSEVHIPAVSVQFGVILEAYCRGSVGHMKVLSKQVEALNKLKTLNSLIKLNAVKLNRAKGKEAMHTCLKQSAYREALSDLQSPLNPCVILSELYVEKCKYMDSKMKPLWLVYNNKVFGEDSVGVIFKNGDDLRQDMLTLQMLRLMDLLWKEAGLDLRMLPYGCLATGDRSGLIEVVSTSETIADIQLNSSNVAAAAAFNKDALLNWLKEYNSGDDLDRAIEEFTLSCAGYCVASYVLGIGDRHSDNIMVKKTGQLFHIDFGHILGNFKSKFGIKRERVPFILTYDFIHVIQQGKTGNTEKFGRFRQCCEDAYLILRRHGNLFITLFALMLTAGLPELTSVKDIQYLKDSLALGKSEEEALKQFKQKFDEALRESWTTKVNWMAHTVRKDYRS
Chain of Cyclin-dependent kinase 13 (Homo sapiens) (Q14004 whole entry, looked up, the tested form may be a part): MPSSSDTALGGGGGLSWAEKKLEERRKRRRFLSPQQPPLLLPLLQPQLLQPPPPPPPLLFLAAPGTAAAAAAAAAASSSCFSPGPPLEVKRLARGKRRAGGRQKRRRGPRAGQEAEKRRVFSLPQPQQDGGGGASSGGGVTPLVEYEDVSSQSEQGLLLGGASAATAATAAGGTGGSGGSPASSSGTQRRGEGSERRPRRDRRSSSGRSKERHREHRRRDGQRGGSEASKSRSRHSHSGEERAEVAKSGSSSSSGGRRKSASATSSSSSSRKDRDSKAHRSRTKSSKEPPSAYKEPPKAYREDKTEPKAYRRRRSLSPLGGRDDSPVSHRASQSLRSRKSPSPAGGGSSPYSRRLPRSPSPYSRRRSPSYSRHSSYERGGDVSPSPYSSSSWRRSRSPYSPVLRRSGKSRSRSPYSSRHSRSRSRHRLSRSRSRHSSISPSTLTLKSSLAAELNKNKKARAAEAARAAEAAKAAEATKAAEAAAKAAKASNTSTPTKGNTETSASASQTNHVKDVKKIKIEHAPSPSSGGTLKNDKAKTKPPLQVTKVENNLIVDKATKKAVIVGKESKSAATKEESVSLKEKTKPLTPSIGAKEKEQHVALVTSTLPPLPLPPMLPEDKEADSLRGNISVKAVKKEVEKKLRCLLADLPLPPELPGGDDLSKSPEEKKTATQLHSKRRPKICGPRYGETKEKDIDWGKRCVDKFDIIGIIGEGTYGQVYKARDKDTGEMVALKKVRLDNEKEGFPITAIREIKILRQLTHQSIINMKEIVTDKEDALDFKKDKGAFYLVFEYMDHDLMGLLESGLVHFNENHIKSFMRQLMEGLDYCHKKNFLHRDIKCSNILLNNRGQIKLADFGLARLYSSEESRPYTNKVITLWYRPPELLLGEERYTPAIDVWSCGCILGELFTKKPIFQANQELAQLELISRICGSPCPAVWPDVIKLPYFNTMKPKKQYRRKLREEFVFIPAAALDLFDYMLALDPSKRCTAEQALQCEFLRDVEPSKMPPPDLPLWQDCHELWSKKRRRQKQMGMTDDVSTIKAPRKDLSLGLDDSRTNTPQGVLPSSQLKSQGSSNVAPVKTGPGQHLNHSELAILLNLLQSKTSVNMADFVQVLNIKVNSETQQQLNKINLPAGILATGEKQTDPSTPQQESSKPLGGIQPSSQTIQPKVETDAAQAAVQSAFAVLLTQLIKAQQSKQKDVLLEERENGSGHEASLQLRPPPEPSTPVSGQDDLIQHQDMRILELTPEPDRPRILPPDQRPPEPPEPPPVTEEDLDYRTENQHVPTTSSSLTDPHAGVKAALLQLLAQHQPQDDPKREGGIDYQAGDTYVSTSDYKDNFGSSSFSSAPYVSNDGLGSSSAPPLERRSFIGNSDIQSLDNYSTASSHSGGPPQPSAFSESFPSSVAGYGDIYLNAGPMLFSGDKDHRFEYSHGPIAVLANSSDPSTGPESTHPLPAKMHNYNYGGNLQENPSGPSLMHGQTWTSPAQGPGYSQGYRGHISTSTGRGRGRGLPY
Chain of Hepatocyte growth factor receptor (Homo sapiens) (P08581 whole entry, the tested form may be a part): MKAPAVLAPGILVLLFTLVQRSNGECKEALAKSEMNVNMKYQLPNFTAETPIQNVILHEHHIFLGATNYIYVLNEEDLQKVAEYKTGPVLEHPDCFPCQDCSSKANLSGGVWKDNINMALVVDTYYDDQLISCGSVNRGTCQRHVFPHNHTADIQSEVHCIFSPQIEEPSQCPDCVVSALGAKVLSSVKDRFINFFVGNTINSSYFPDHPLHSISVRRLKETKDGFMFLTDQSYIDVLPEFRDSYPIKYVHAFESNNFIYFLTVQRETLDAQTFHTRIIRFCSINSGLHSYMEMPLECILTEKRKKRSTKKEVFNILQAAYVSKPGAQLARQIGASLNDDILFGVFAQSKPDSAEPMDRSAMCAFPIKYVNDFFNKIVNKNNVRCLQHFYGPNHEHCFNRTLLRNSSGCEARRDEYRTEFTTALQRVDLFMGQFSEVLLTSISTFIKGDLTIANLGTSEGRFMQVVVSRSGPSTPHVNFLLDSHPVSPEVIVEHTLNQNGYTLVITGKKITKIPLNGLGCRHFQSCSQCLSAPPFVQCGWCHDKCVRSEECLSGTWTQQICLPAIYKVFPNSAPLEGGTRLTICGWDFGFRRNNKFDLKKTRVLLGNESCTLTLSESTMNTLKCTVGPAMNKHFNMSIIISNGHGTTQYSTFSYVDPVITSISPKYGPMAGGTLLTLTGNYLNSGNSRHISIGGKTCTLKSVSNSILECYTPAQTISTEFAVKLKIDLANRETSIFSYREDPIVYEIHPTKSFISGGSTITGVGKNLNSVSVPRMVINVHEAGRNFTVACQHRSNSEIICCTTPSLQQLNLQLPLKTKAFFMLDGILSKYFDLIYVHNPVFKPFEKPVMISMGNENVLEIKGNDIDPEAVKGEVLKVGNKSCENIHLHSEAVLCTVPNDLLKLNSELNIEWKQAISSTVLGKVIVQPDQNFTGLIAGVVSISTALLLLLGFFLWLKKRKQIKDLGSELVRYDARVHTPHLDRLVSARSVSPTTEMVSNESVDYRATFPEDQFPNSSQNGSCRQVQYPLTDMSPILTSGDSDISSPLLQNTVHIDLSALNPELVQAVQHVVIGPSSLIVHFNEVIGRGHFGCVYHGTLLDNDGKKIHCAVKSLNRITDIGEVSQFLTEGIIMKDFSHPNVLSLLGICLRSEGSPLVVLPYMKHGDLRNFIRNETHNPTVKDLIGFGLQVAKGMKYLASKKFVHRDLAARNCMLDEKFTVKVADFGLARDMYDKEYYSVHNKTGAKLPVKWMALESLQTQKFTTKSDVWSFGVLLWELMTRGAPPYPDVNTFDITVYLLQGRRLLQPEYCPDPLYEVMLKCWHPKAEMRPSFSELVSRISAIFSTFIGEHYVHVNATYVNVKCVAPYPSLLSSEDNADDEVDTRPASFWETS

CC(C)N1C(=O)C(NCCCN(C)C)=C(c2cn(C)c3ccccc23)C1=O.Cl
Activity [1]: 89% | Activity [2]: 91% | Activity [3]: 99% | Activity [4]: 100% | Activity [5]: 100% | Activity [6]: 97% | Activity [7]: 94% | Activity [8]: 97% | Activity [9]: 100% | Activity [10]: 100% | Activity [11]: 97% | Activity [12]: 81% | Activity [13]: 98% | Activity [14]: 98% | Activity [15]: 100% | Activity [16]: 72% | Activity [17]: 91% | Activity [18]: 89% | Activity [19]: 98% | Activity [20]: 87% | Activity [21]: 87% | Activity [22]: 78% | Activity [23]: 99% | Activity [24]: 96%
